Bounds are passed on as bounds.

A short description of test [1]: T>MIC in Mycobacterium tuberculosis infected mouse. It is filed as functional.
Test [2] is described as follows: fT>MIC in Mycobacterium tuberculosis infected mouse. It is filed as functional.
Test [3] can be described thus: AUC/MIC in Mycobacterium tuberculosis infected mouse. It is filed as functional, Plasma.
A short description of test [4]: fAUC/MIC in Mycobacterium tuberculosis infected mouse. The test is classed as functional.
A short description of test [5]: Cmax/MIC in Mycobacterium tuberculosis infected mouse. The test is classed as functional.
The nature of test [6]: fCmax/MIC in Mycobacterium tuberculosis infected mouse. The test is classed as functional.

`COc1nc2ccc(Br)cc2cc1[C@@H](c1ccccc1)[C@@](O)(CCN(C)C)c1cccc2ccccc12` [BEDAQUILINE]: in test [1], the “%T>MIC” value was determined as 80%. In addition, in test [2], the “fT>MIC” value is 0%. The RatioAUC/MIC in test [3] was 100. Also, the fAUC/MIC in test [4] turned out to be 1. In test [5], the Ratio came to 10. This compound came in with a fCmax/MIC in test [6] of 0.1.
For `CC(C)/N=c1\cc2n(-c3ccc(Cl)cc3)c3ccccc3nc-2cc1Nc1ccc(Cl)cc1` [CLOFAZIMINE], the “%T>MIC” value in test [1] was determined as 0%. For the same compound, the “fT>MIC” value in test [2] amounted to 0%. In test [3], the RatioAUC/MIC was 20. The fAUC/MIC in test [4] is reported as <1. For the same compound, the Ratio in test [5] was 1. The compound further showed a fCmax/MIC in test [6] of 0.02.
With `CC[C@@H](CO)NCCN[C@@H](CC)CO` [ETHAMBUTOL], the “%T>MIC” value in test [1] was 35%. In addition, the “fT>MIC” value in test [2] stood at 25%. For the same compound, the RatioAUC/MIC in test [3] is reported as 33. In test [4], this compound had a fAUC/MIC of 25. Further, the Ratio in test [5] was found to be 11. For the same compound, in test [6], the fCmax/MIC is given as 8.
As to `NNC(=O)c1ccncc1` [ISONIAZID], the “%T>MIC” value in test [1] is given as 80%. In test [2], the “fT>MIC” value stood at 60%. The RatioAUC/MIC in test [3] was 1300. The fAUC/MIC in test [4] came to 800. Moreover, the Ratio in test [5] was 660. The compound further registered a fCmax/MIC in test [6] of 400.
Consider `OC(c1cc(C(F)(F)F)nc2c(C(F)(F)F)cccc12)C1CCCCN1` (centres undefined) [MEFLOQUINE], for which the “%T>MIC” value in test [1] worked out at 0%. The “fT>MIC” value in test [2] was 0%. This compound also had a RatioAUC/MIC in test [3] of 8. Further, the fAUC/MIC in test [4] stood at 1.6. Further, the Ratio in test [5] stood at 0.5. The compound further registered a fCmax/MIC in test [6] of 0.1.
Take `COc1c(N2C[C@@H]3CCCN[C@@H]3C2)c(F)cc2c(=O)c(C(=O)O)cn(C3CC3)c12` [MOXIFLOXACIN]: in test [1], the “%T>MIC” value was 100%. Besides, the “fT>MIC” value in test [2] came to 80%. In test [3], this compound had a RatioAUC/MIC of 88. The compound also yielded a fAUC/MIC in test [4] of 53. Moreover, the Ratio in test [5] came to 17. Further, the fCmax/MIC in test [6] is listed as 10.
With `O=[N+]([O-])c1cn2c(n1)OC[C@@H](OCc1ccc(OC(F)(F)F)cc1)C2` [PRETOMANID], in test [1], the “%T>MIC” value is on record as 58%. In addition, the “fT>MIC” value in test [2] was 21%. Also, the RatioAUC/MIC in test [3] is 166. Further, the fAUC/MIC in test [4] worked out at 16. Besides, the Ratio in test [5] is reported as 20. In test [6], the fCmax/MIC worked out at 2.
In the case of `NC(=O)c1cnccn1` [PYRAZINAMIDE], the “%T>MIC” value in test [1] came to 25%. Besides, the “fT>MIC” value in test [2] is recorded as 19%. For the same compound, the RatioAUC/MIC in test [3] is given as 35. The fAUC/MIC in test [4] is on record as 21. Besides, the Ratio in test [5] stood at 25. The same compound yielded a fCmax/MIC in test [6] of 15.
Turning to `CO[C@H]1/C=C/O[C@@]2(C)Oc3c(C)c(O)c4c(O)c(c(/C=N/N5CCN(C)CC5)c(O)c4c3C2=O)NC(=O)/C(C)=C\C=C\[C@H](C)[C@H](O)[C@@H](C)[C@@H](O)[C@@H](C)[C@H](OC(C)=O)[C@@H]1C` [RIFAMPIN], in test [1], the “%T>MIC” value is on record as 100%. In test [2], the “fT>MIC” value is listed as 100%. Also, the RatioAUC/MIC in test [3] amounted to 1500. This compound also displayed a fAUC/MIC in test [4] of 300. In addition, the Ratio in test [5] came out at 100. Also, the fCmax/MIC in test [6] is on record as 20.

The values above are taken from ChEMBL document CHEMBL2412982, “A medicinal chemists' guide to the unique difficulties of lead optimization for tuberculosis” (2013).
